# Measurements published in US10670605B2, “Cysteine reactive probes and uses thereof” (The Scripps Research Institute, priority 2015, dated 2020).
# Key:
# Assay in all cases: Competitive isoTOP-ABPP in situ (fragment-treated cells)
# Format in all cases: cell-based
# [1] = target: T1, cysteines in MDA-MB-231 and Ramos cells (Homo sapiens, UniProt P11216)
# T1 sequence (P11216 1-843): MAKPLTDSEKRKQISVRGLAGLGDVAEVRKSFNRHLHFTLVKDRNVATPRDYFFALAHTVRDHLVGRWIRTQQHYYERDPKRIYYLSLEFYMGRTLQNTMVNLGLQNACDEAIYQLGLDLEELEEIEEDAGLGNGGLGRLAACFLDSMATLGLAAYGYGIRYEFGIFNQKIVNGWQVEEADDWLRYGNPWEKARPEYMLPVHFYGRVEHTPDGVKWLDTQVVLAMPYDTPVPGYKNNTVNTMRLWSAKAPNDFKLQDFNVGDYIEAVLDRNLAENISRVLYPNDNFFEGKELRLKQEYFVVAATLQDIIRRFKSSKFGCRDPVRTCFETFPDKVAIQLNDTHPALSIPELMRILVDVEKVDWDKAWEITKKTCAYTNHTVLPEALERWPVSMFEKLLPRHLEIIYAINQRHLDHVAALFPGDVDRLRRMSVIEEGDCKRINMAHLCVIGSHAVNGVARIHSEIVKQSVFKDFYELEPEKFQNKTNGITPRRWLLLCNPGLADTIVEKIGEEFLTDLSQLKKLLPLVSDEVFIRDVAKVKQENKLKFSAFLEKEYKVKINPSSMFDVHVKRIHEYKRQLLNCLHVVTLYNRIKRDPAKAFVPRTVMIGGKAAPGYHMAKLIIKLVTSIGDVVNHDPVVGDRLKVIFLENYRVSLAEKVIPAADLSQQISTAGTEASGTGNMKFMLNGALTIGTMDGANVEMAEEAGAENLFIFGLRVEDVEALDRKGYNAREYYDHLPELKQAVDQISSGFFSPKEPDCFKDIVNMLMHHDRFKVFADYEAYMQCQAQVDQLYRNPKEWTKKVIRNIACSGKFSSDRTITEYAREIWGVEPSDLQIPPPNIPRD
# [2] = target: T2, cysteines in MDA-MB-231 and Ramos cells (Homo sapiens, UniProt P30101)
# T2 sequence (P30101 25-505): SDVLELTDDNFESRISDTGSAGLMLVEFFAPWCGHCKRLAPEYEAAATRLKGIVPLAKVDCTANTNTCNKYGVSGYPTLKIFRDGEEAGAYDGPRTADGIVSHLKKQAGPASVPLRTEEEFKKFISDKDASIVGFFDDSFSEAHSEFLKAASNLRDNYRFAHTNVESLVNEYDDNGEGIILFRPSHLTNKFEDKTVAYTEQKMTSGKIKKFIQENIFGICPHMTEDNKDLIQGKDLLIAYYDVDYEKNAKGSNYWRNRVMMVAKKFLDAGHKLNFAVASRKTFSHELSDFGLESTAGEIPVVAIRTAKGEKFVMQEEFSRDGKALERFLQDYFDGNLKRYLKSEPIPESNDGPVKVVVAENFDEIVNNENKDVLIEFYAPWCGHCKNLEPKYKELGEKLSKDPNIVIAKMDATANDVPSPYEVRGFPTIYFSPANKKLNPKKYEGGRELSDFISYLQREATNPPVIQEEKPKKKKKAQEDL
# [3] = target: cysteines in MDA-MB-231 and Ramos cells (Homo sapiens, UniProt P61978)
# [4] = target: cysteines in MDA-MB-231 and Ramos cells (Homo sapiens, UniProt Q15021)
# [5] = target: T3, cysteines in MDA-MB-231 and Ramos cells (Homo sapiens, UniProt Q15084)
# T3 sequence (Q15084 20-440): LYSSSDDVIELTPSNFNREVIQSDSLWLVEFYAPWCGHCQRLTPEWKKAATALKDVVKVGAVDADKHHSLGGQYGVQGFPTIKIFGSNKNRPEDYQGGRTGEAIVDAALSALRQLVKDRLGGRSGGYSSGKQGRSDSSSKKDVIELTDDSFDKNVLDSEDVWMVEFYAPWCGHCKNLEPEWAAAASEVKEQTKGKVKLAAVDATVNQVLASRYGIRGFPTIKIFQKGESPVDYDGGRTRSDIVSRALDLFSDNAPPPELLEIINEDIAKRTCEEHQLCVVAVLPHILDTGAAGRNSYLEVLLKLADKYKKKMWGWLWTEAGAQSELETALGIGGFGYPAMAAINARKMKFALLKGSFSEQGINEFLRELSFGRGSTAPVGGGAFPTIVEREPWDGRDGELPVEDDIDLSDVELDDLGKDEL
# [6] = target: T4, cysteines in MDA-MB-231 and Ramos cells (Homo sapiens, UniProt Q9ULW0)
# T4 sequence (Q9ULW0 1-747): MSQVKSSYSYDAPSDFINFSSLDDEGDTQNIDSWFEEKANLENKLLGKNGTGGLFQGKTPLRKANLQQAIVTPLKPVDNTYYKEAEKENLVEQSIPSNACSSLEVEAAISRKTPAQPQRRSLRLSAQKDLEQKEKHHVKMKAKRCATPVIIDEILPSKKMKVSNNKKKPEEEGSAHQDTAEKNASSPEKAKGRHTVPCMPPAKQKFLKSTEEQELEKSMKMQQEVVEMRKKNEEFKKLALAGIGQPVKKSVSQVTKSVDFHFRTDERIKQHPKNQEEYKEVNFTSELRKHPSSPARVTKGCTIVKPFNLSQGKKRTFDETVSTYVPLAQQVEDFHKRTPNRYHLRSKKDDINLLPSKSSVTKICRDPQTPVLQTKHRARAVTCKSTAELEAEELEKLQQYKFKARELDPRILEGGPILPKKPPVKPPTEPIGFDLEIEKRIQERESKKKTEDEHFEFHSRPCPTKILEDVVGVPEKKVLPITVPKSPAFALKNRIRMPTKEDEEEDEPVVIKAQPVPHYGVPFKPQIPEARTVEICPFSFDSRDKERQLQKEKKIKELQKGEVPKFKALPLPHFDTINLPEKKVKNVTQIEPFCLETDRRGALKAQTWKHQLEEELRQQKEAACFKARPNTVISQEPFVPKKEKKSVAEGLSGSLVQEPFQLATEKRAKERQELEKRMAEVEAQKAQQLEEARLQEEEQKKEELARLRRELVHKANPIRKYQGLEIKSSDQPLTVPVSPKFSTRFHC
# cysteines in MDA-MB-231 and Ramos cells (Homo sapiens, UniProt Q15021), sequence (Q15021 whole entry): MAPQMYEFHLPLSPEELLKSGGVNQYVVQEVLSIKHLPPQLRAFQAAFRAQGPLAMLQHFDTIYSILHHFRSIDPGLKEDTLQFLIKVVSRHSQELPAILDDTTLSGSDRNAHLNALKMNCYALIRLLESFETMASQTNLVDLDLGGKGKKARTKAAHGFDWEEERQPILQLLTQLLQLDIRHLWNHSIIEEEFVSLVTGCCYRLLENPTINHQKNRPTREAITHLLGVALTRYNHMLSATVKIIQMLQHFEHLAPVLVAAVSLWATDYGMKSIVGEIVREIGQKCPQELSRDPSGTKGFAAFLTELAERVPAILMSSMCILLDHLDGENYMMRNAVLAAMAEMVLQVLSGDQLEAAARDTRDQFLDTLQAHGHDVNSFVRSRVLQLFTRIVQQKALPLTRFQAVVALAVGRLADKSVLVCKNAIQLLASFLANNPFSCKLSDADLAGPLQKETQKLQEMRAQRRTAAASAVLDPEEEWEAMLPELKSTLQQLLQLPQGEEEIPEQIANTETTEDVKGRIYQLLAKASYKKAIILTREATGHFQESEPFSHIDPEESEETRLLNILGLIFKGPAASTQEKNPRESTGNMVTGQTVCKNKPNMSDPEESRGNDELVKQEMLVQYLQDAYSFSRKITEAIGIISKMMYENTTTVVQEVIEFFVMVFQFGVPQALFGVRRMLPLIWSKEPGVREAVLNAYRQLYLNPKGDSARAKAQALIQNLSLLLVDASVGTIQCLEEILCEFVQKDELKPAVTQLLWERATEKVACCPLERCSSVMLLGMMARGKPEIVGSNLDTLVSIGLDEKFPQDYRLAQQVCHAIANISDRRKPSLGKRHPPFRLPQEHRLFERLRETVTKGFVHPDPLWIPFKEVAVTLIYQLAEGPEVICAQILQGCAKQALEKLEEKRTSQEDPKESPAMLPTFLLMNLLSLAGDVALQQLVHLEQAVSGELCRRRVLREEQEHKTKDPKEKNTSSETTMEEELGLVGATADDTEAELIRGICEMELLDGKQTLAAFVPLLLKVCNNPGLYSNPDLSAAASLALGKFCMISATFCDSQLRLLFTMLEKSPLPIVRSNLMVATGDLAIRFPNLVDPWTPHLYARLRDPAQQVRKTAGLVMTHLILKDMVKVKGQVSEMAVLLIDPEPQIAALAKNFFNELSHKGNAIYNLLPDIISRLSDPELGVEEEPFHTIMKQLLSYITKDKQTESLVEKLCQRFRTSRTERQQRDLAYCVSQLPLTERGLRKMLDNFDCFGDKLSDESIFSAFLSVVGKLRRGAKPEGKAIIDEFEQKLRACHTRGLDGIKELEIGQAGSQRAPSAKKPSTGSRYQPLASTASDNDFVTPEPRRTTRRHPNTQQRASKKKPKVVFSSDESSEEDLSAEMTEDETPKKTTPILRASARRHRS
Compound,"isoTOP-ABPP ratio P11216_C326 ([1]; 200 μM, insitu, 231)","isoTOP-ABPP ratio P30101_C406 ([2]; 200 μM, insitu, 231)","isoTOP-ABPP ratio P61978_C132 ([3]; 200 μM, insitu, 231)","isoTOP-ABPP ratio Q15021_C439 ([4]; 200 μM, insitu, 231)","isoTOP-ABPP ratio Q15084_C55 ([5]; 200 μM, insitu, 231)","isoTOP-ABPP ratio Q9ULW0_C536 ([6]; 200 μM, insitu, 231)","isoTOP-ABPP ratio P30101_C57 ([2]; 200 μM, insitu, 231)","isoTOP-ABPP ratio, Q15084_C190 ([5]; 200 μM, insitu, 231)","isoTOP-ABPP ratio P30101_C406 ([2]; 200 μM, insitu, ramos)","isoTOP-ABPP ratio P61978_C132 ([3]; 200 μM, insitu, ramos)",further results
COc1ccc(C2CC(c3cccs3)=NN2C(=O)CCl)cc1 (centres unmarked) [compound 4],,,,,,,,,,,isoTOP-ABPP reactivity P11216_C326 PYGB ([1]; 100 μM in situ 231): 1.7; isoTOP-ABPP reactivity P30101_057 PDIA3 ([2]; 100 μM in situ 231): 20.0; isoTOP-ABPP reactivity P30101_C406 PDIA3 ([2]; 100 μM in situ 231): 9.0; isoTOP-ABPP reactivity P61978_C132 HNRNPK ([3]; 100 μM in situ 231): 3.8; isoTOP-ABPP reactivity Q15021_C439 NCAPD2 ([4]; 100 μM in situ 231): 2.2; isoTOP-ABPP reactivity Q15084_C55 PDIA6 ([5]; 100 μM in situ 231): 4.9; isoTOP-ABPP reactivity Q15084_C190 PDIA6 ([5]; 100 μM in situ 231): 20.0; isoTOP-ABPP reactivity Q9ULW0_C536 TPX2 ([6]; 100 μM in situ 231): 20.0
O=C(CCl)Nc1cccc2ncccc12 [compound 51],0.8,6.0,1.2,1.1,5.0,1.4,,,,,
CC1CCc2ccccc2N1C(=O)CCl (centres unmarked) [compound 45],5.3,2.6,9.3,,2.0,20.0,2.6,2.8,,,
O=C(CCl)NC(=O)NC12CC3CC(CC(C3)C1)C2 [compound 12],3.9,20.0,7.5,6.7,15.4,20.0,20.0,20.0,,,
O=C(CCl)N1CCN(S(=O)(=O)c2ccccc2F)CC1 [compound 10],8.6,3.3,5.6,5.2,3.1,17.6,3.3,3.7,1.4,1.6,
O=C(CCl)N1CCN(CC(=O)N2CCOCC2)CC1 [compound 29],,,,,,,,,1.5,1.2,"isoTOP-ABPP ratio P30101_C57 ([2]; 200 μM, insitu, ramos): 1.2; isoTOP-ABPP ratio Q15021_C439 ([4]; 200 μM, insitu, ramos): 1.4; isoTOP-ABPP ratio Q15084_C55 ([5]; 200 μM, insitu, ramos): 1.0; isoTOP-ABPP ratio, Q15084_C190 ([5]; 200 μM, insitu, ramos): 1.0; isoTOP-ABPP ratio Q9ULW0_C536 ([6]; 200 μM, insitu, ramos): 1.8"
CC(C)CCOCCNC(=O)CCl [compound 27],0.7,1.2,0.9,0.6,1.2,1.1,1.1,1.0,,,
O=C(CCl)N1CCC(Cc2ccccc2)CC1 [compound 9],,,,,,,,,,,"isoTOP-ABPP reactivity P11216_C326 PYGB ([1]; 200 μM, insitu, 231): 2.6; isoTOP-ABPP reactivity P30101_C406 PDIA3 ([2]; 200 μM, insitu, 231): 1.4; isoTOP-ABPP reactivity P61978_C132 HNRNPK ([3]; 200 μM, insitu, 231): 1.4; isoTOP-ABPP reactivity Q15021_C439 NCAPD2 ([4]; 200 μM, insitu, 231): 6.1; isoTOP-ABPP reactivity Q15084_C55 PDIA6 ([5]; 200 μM, insitu, 231): 2.1; isoTOP-ABPP reactivity Q9ULW0_C536 TPX2 ([6]; 200 μM, insitu, 231): 5.7"
O=C(CCl)NC12CC3CC(CC(C3)C1)C2 [compound 21],0.9,,1.4,0.7,0.9,0.9,1.0,,,,
COc1ccc2c(c1)CCCN2C(=O)CCl [compound 2],,,,,,,,,,,"isoTOP-ABPP reactivity P30101_057 PDIA3 ([2]; 200 μM, insitu, 231): 2.2; isoTOP-ABPP reactivity P30101_C406 PDIA3 ([2]; 200 μM, insitu, 231): 3.2; isoTOP-ABPP reactivity P61978_C132 HNRNPK ([3]; 200 μM, insitu, 231): 5.0; isoTOP-ABPP reactivity Q15084_C55 PDIA6 ([5]; 200 μM, insitu, 231): 3.0; isoTOP-ABPP reactivity Q9ULW0_C536 TPX2 ([6]; 200 μM, insitu, 231): 20.0"
COc1ccccc1OCCNC(=O)CCl [compound 28],,,1.0,0.9,1.4,1.0,1.6,,,,
O=C(CCl)NCCc1c[nH]c2ccccc12 [compound 13],1.3,,1.1,,,1.5,,,2.0,1.1,"isoTOP-ABPP ratio P30101_C57 ([2]; 200 μM, insitu, ramos): 1.6; isoTOP-ABPP ratio Q15084_C55 ([5]; 200 μM, insitu, ramos): 1.5"
C=CC(=O)N(Cc1cccnc1)c1cc(C(F)(F)F)cc(C(F)(F)F)c1 [compound 31],0.5,0.8,0.9,20.0,0.7,,0.9,1.0,1.1,1.1,
